Laboratory results published in a melting point compilation (Tetko et al.; mined from patent text by program, amines drawn as free bases though some values may be those of a salt).

| melting point [°C] | SMILES |
| --- | --- |
| 99 to 101 | COc1cc(N)c(Cl)cc1C(=O)NC[C@H]1CCN(CCCCCC(=O)c2ccccc2)C[C@H]1OC (relative stereo) |
| 169 to 170 | CCOC(=O)CC[C@H](NC(=O)c1ccc(CCC2CNc3nc(NC(=O)C(C)(C)C)[nH]c(=O)c3C2)s1)C(=O)OCC (stereo partly specified) |
| 183 to 184 | Cc1ccc2cc(C3=NCCS3)[nH]c2c1NS(=O)(=O)c1cccs1 |
| 217 to 218 | O=c1nc(-c2cccc(S(=O)(=O)Cc3ccccc3)n2)sc2ccccc12 |
| 185 to 190 | CCOc1ccc2c(c1)C(=O)N(c1ccc3c(ccn3C)c1)C2 |
| 264 to 266 | CC(C)c1cccc(C(C)C)c1NC(=O)NC1CCC(C(C)(C)C)CC1 (stereo unspecified) |
| 152 to 154 | COc1ccc(C2=NN(C3CCN(C(=O)c4ccccc4)CC3)C(=O)CC2)cc1OC |
| 190 to 191 | CCc1c(-c2ccc(OCc3ccccc3)cc2)c2cc(C(C)=O)c3ccc(CO)c1n32 |
| 143 to 145 | O=C(Nc1nnn(C(F)F)n1)C(c1ccccc1)c1ccccc1 |
| 154 to 155 | CN(C)CC1COC2(CCN(c3nc4c(cc3F)C=C(C(=O)O)CN4c3ccc(F)cc3F)C2)O1 (stereo unspecified) |
| 171 to 173 | COc1cc(COc2nn(-c3ccccc3)cc2/C=C/c2nc(N3CCOCC3)sc2C)ccc1OCc1nc(-c2ccc(CC(=O)O)cc2)oc1C |
| 133 | Cc1cccc(CCC(O)(P(=O)(O)O)P(=O)(O)O)c1N |
| 80 to 82 | CC(=O)Nc1c(C(=O)c2ccccc2)[nH]c2ccc(F)cc12 |
| 146 to 148 | CC(C)n1c(=O)sc2cc(N)ccc21 |
| 135 | COc1ccc(CNc2nc(CCC(=O)O)nc3sc4c(c23)CCCC4)cc1Cl |
| 204 to 208 | CC1CSc2c(-c3ccccc3)c3ccccc3c(=O)n21 (stereo unspecified) |
| 153 to 160 | C/C=C/C(=O)Nc1ccc2ncnc(Nc3cccc(Br)c3)c2c1 |
| 110 to 111 | Cn1c(C(=O)c2ccc(Cc3ccc(F)cc3)o2)c(O)c(=O)n1C |
| 115 to 116 | CCCc1c(OCCCSc2ccc(C(=O)CCC(=O)O)cc2F)ccc(C(C)=O)c1O |
| 144 to 146 | N[C@H]1CC[C@@H](Oc2ccc3[nH]ncc3c2)CC1 |
| 286 to 290 | Cc1cscc1NC(=S)Nc1c(N)c(F)c(F)c(F)c1F |
| 160 to 162 | COc1ccc(-c2cc3ccccc3[nH]2)cc1NCc1cccc([N+](=O)[O-])c1 |

| melting point [°C] | SMILES |
| --- | --- |
| 180 to 188 | COC(=O)c1ccc(N(C(=O)c2ccccc2-c2ccccc2)C(=O)c2ccccc2-c2ccccc2)nc1 |
| 220 to 223 | Cc1cc2cc(CN3CCCC3)cnc2cc1NC(=O)c1ccc(-c2ccc(F)c(F)c2)cc1 |
| 89 to 90 | CCC(CC)Cn1nc(-c2ccc(O)cc2O)c2cccc(C(F)(F)F)c21 |
| 168 | COCCC(=O)Nc1ccc(Cl)c(C2(C)C(=O)N(Cc3ccc(OC)cc3OC)c3ccc(Cl)cc32)c1 (stereo unspecified) |
| 143 to 144 | O=c1[nH]c(N2CCCC(CO)C2)cc2ccccc12 (stereo unspecified) |
| 108 | CCn1ncnc1COc1nn2c(-c3cc(F)ccc3F)nncc2c1C(C)(C)C |
| 146 to 148 | CC(=O)N(C)c1cccc(C(=O)C=CN(C)C)c1 |
| 174 to 175 | Cc1c(Br)c(NC(=O)CC(C)(C)C)c(C)c2c1OCC2c1ccc(C(C)C)cc1 (stereo unspecified) |
| 203 to 204 | Cc1cccc(C(=O)Nc2cc(-c3c(-c4ccc(F)c(C)c4)nc4cccnn34)ccn2)c1 |
| 161 to 163 | Cc1c(-c2ccc(O)cc2)n(Cc2ccc(/C=C/C(N)=O)cc2)c2ccc(O)cc12 |
| 105 to 108 | CCOC(=O)c1nc(O)sc1C(=O)CBr |
| 172 to 174 | COc1ccc2c(c1)Sc1cc(OC(C)=O)c(OC)cc1N2 |
| 75.3 | COC(=O)COc1ncccc1Oc1cc(N2C(=O)C=C(C(F)(F)F)CC2=O)c(F)cc1Cl |
| 70 to 72 | CCCCN(CC(=O)N1c2ccccc2N(CC)C(=O)c2cnc(-c3ccccc3)nc21)C(C)(C)C |
| 250 to 255 | O=c1ccc2nc3ccc(F)cc3sc-2c1Cl |
| 79 to 85 | CCCON1C(C)(C)CC(NC(=O)C2=C(c3ccccc3)C(c3ccccc3)OC2=O)CC1(C)C (stereo unspecified) |
| 75 to 76 | Cc1nc(-c2cccc(CNc3ccccc3)c2)no1 |
| 99 to 101 | CCOc1nn(-c2c(Cl)cc(C(F)(F)F)cc2Cl)c(N)c1C(=O)c1cc(C)ccc1C |
| 71 to 73 | Cc1sccc1C(=O)O |
| 103 to 104 | O=C(O)CCCCCCCn1nnc(-c2ccccc2)c1-c1ccccc1 |
| 250 to 254 | O=C(O)/C=C/n1cnc2ccccc2c1=O |
| 102 to 104 | CNC(=O)n1nc(Oc2ccc(C(F)(F)F)cc2[N+](=O)[O-])cc1C(F)(F)F |

| melting point [°C] | SMILES |
| --- | --- |
| 221 to 222 | O=C1C2=C(C(=O)c3ccccc31)C(=O)C1CC(Cl)=CCC1C2=O (stereo unspecified) |
| 84 to 91 | O=C1CCC(N2C=Nc3ccccc3CC2)C(=O)N1 (stereo unspecified) |
| 154 to 155 | Cn1nc(-c2cccs2)c(N)c1N |
| 135 to 140 | COc1cc2c(cc1OC)CN(CCc1ccc(NC(=O)c3cccc4c(=O)cc(-c5ccccc5)oc34)cc1)CC2 |
| 209 to 211 | CCCCCCCNC(=O)Nc1ccc(NC(=O)NCCCC)cc1C(=O)NC1CCN(C(c2ccccc2)c2ccccc2)CC1 |
| 148 to 150 | CCC1CC(=O)c2cc(C(C)C(N)=O)ccc2O1 (stereo unspecified) |
| 134 to 135 | N#Cc1ccc(CC(NC(=O)OCc2ccccc2)C(=O)NCC(=O)NCCC(=O)OCc2ccccc2)cc1 (racemic) |
| 142 to 143 | Cc1cc(/C=C/C(c2cc(Cl)cc(Cl)c2)C(F)(F)F)ccc1C(=O)O (stereo unspecified) |
| 98 to 99 | O=C(CCCN1CCOCC1)c1ccc2oc3ccc(C(=O)CCCN4CCOCC4)cc3c2c1 |
| 174 to 176 | O=C(Nc1ccc(Cl)cc1)NC1CCN(C(=O)Cc2c[nH]cn2)CC1 |
| 182 to 183 | Fc1ccccc1-c1nncc2c(-c3ccccc3)c(OCc3ccccn3)nn12 |
| 96 to 97 | C[C@H](N=C(C(=O)N[C@@H](C)c1ccccc1)C(C)(C)C)c1ccccc1 |
| 108 to 110 | COc1cc(C)cc(Sc2cccc(N)c2C#N)c1 |
| 207 to 210 | O=P(O)(O)Cc1cc(Cl)c(Oc2ccc(O)c(Cc3ccc(F)cc3)c2)c(Cl)c1 |
| 183 to 184 | Nc1ccc(CP2(=O)OCCO2)cc1 |
| 130 to 136 | CC(C)(C)c1cc(CCC(=O)OC2CC(C)(C)N(OC3CCCCC3)C(C)(C)C2)cc(-n2nc3ccc(Cl)cc3n2)c1O |
| 147 to 150 | COC1CCN(c2cc(NC(=O)OC(C)(C)C)c([N+](=O)[O-])cc2C#Cc2ccccc2)CC1 |
| 215 to 216 | O=C1C=Cc2ccc3ncccc3c2C1=O |
| 90 | CCCCOC(=O)c1ccc(C(F)(F)F)cc1Cl |
| > 300 | Cc1nc(O)c([N+](=O)[O-])c(O)n1 |
| 145 to 146 | O=[N+]([O-])c1ccc(N2CCN(Cc3ccccc3)CC2)cc1CS(=O)(=O)c1ccccc1 |
| 176 to 177 | Cc1cc(COc2nn(Cc3ccccc3)cc2C(=O)O)ccc1OCc1nc(-c2ccco2)oc1C |

| melting point [°C] | SMILES |
| --- | --- |
| 248 | O=C1Nc2ccc(Cl)cc2C1(O)c1cccc(F)c1F (stereo unspecified) |
| 196 | CC(C)(C)c1cc(C(=O)NN(C(=O)O)C(C)(C)C)cc(C(C)(C)C)c1O |
| 174 to 175 | COC(C)c1ccc(-c2ccc(O)cc2)cc1 (single isomer, unassigned; (+)) |
| 162 to 163 | CC(=O)NC(CCC(=O)c1c(F)cccc1F)c1ccc(Br)cc1 (stereo unspecified) |
| 89 to 91 | O=C(NCc1ccccc1)c1ccc(OC2SCC(O)C(O)C2O)cn1 (stereo unspecified) |
| 222 to 224 | CN1C(=O)N(c2c(Cl)cccc2Cl)Cc2cnc(Nc3ccccc3)nc21 |
| 185 to 187 | O=C(O)c1ccc(Br)cc1C(=O)c1ccccc1 |
| 72 to 73 | CC(C)OC(=O)N=C1SCS1 |
| 214 | CCOc1ccc(-c2cc(Nc3ccc(OC)c(Cl)c3)nc(NC(C)=O)n2)cc1 |
| 155 to 156 | CCCCC(CC)n1nnc2c(Nc3c(Cl)cc(OC)cc3OC)nc(C)cc21 (stereo unspecified) |
| 116 | CCCC[C@H](NC(=O)[C@H](CC(C)C)NC(=O)c1c(F)cccc1F)C(=O)CSCc1ccco1 |
| 102 to 104 | Cc1ncoc1C(O)c1ccc(F)cc1 (stereo unspecified) |
| 98 to 99 | CCCN(CCC)C(=O)CNc1nc(-c2ccccc2)nc(C(C)C)c1C |
| 204 | OC(c1ccccc1)(c1ccccc1)C(c1ccc(OCc2ccccc2)cc1)n1ccnc1 (stereo unspecified) |
| 77 to 78 | CCn1cccc1C(=O)O |
| 270 to 271 | CSC1=NC(=O)C(=Cc2cccc(-c3cc(F)c(O)c(C45CC6CC(CC(C6)C4)C5)c3)c2)S1 |
| 137 to 139 | C=CCOc1cc2c(cc1CC=C)CCC(=O)N2 |
| 150 to 152 | O=C(O)c1nc(C2CC2)nc(NCc2ccco2)c1Cl |
| 253 to 254 | O=C(CNS(=O)(=O)c1ccc(Nc2nccc(Nc3ccc(F)cc3)n2)cc1)NC1CCOCC1 |
| 183 to 185 | CN1CCN(CC(=O)N2c3ccccc3N(C)C(=O)c3cncnc32)CC1 |
| 245 | CC(=O)c1c(NC(=O)c2ccc([N+](=O)[O-])cc2)cccc1C(F)(F)F |
| 102 | OCc1cccnc1Nc1cccc(C(F)(F)F)c1 |

| SMILES | melting point [°C] |
| --- | --- |
| CCN1c2ncccc2C(C#N)=Nc2c(C)cc(C)nc21 | 154 to 155 |
| CCNC(=O)c1ccc(N2CCNCC2)c(Cl)c1 | 117 to 119 |
| CCC1(O)CC(=O)OCc2c1cc1n(c2=O)Cc2c-1nc1ccc(Cl)cc1c2-c1ccccc1F (stereo unspecified) | > 250 |
| O=c1[nH]c2c(O)cccc2c(=O)n1CCCN1CC=C(c2ccc(Cl)cc2)CC1 | 284 to 286 |
| Nc1ncnc2c1ncn2Cc1nc2ccc(Cl)cc2c(=O)n1-c1ccccc1Cl | 294 to 295 |
| CC(C)(C)NCC(O)c1ccc(N)c(C(F)(F)F)c1 (stereo unspecified) | 145 to 147 |
| CN(C)C1(C(=O)c2cc3ccccc3n2C)CCC(c2ccccc2)(N(C)C)CC1 (stereo unspecified) | 109 to 111 |
| O=c1[nH]c2cccc(C3CCCNC3)c2[nH]1 (stereo unspecified) | 260 |
